For 102 molecules, cytotoxicity results are on record in ChEMBL document CHEMBL3507680, “University of Dundee, Gates Library screen for HepG2 cell viability”.

The structures appear in SMILES notation.

The data set is described as follows: Human HepG2 cell viability assay in 384 well format. Format: toxicity, cell-based. Details: dose 125 nL, time 70.5 hour; cytotoxicity at 70.5 h: concentration not given beside the values. The following applies: HepG2 cells, read-out: Inhibition.

As for `O=c1[nH]ncn1-c1cccc(C(F)(F)F)c1`, the cytotoxicity at 70.5 h turned out to be 1.41%. On to `CC(=O)Cn1ncc(N2CCOCC2)cc1=O`, for which the cytotoxicity at 70.5 h is -0.483%.

As to `COc1ccsc1C(=O)NCCN1CCOCC1`, the cytotoxicity at 70.5 h was -7.25%.

On to `CC(C)CC(=O)N1CCCn2cnc(CN3CCCC3=O)c2C1`, for which the cytotoxicity at 70.5 h is -4.92%. For `CNC(=O)c1cc2c(nc1NC(C)C)CCN(C(=O)NC(C)C)CC2`, the cytotoxicity at 70.5 h was -10.9%. Under `Cc1nccc([C@@H]2C[C@@H]3CCN(S(C)(=O)=O)C[C@H]3O2)n1` stands -10%. Consider `Cc1noc(C2CCC3(CCN(C(=O)c4c(C)noc4C)CC3)O2)n1` (configuration not stated), for which the cytotoxicity at 70.5 h was -5.47%.

Turning to `O=C1CCCN1Cc1ncn2c1CN(C(=O)c1cccc(F)c1)CCC2`, the cytotoxicity at 70.5 h is -13.4%. The figure for `O=C(O)c1ccccc1-n1cc(CN2CCC(c3cc[nH]n3)C2)cn1` (configuration not stated) is -2.77%; for `CN(C)CC(=O)N1CCCC1c1ccccn1` (configuration not stated) it is -3.81%; for `Cc1ccc(C2CCCN(S(C)(=O)=O)C2)nc1` (configuration not stated) it is -2.08%. The figure for `COCCC(=O)N1CCCC1c1nc(C)c2c(n1)N(C)C(=O)CC2` (configuration not stated) is -3.97%; for `Cc1nccc(C2CCCN(S(=O)(=O)N3CCOCC3)C2)n1` (configuration not stated) it is 19.2%.

In the case of `Cc1cccc(-c2nccnc2C2CCN(C)CC2)c1C`, the cytotoxicity at 70.5 h amounted to 0.0925%. In the case of `CN1CCN(c2ncccn2)CC1C(N)=O` (configuration not stated), the cytotoxicity at 70.5 h came out at 36.7%. Take `Cc1cccc(CNC(=O)CC2CCN(C(=O)C(C)C)CC2)n1`: the cytotoxicity at 70.5 h was 6.37%. For `CC(C)Nc1n[nH]c2nc(C3CCN(C(=O)c4ccccn4)C3)ccc12` (configuration not stated), the cytotoxicity at 70.5 h amounted to 8.59%.

In the case of `CN(C)S(=O)(=O)N1CC(c2ccnc(Nc3ccccn3)n2)C1`, the cytotoxicity at 70.5 h was -5.03%. `Cn1cc(CN2CCCCC2c2ccc(-c3cnn(C)c3)nc2)cn1` (configuration not stated): the cytotoxicity at 70.5 h is -8.29%.

As to `CN(C)c1nccc(C2CN(S(C)(=O)=O)C2)n1`, the cytotoxicity at 70.5 h was -1.11%.

Regarding `Cc1csc(Nc2cc(C3CN(c4ccncn4)C3)nc(C)n2)n1`, the cytotoxicity at 70.5 h was -8.67%. On to `O=C(NCC1CCOCC1)c1cc(-c2cccnc2)c2cnccc2n1`, for which the cytotoxicity at 70.5 h is -8.58%.

`CCCn1ncc(C(=O)NC(C)c2c(C)nn(CC)c2C)c1C` (configuration not stated): the cytotoxicity at 70.5 h is -8.47%. Take `COCC(=O)NCc1cnc(C)nc1-c1cn(C)c2ccc(OC)cc12`: the cytotoxicity at 70.5 h is -7.48%. On to `COc1ccccc1N1CC(NC(=O)Cn2cc(C(C)C)nn2)CC1=O` (configuration not stated), for which the cytotoxicity at 70.5 h is -9.11%. For `CCNC(=O)C1(Cc2cc(-c3ccccc3)no2)CCCN(C(C)=O)C1` (configuration not stated), the cytotoxicity at 70.5 h turned out to be 10.5%. For the molecule `Cc1cc(C)n(C2CCN(S(=O)(=O)N3CCOCC3)CC2)n1`, the cytotoxicity at 70.5 h was -6.85%. Regarding `Cc1cc(-c2nccs2)nc(C2CCN(Cc3ccccn3)CC2)n1`, the cytotoxicity at 70.5 h is -3.72%. Regarding `COCCNc1ncc(-c2cccc(OC)c2)c(-c2nccn2C)n1`, the cytotoxicity at 70.5 h was -7.42%. Regarding `CNc1cnc(CC2COCCN(Cc3ccccc3)C2)cn1` (configuration not stated), the cytotoxicity at 70.5 h is -2.53%. As for `CNc1cnc(CC2COCCN(Cc3cccc(C)n3)C2)cn1` (configuration not stated), the cytotoxicity at 70.5 h is -2.94%. Consider `CNc1cc(C2CN(Cc3cccnc3NC)CCO2)nc(C)n1` (configuration not stated), for which the cytotoxicity at 70.5 h was -2.49%.

`CNc1cnc(CC2COCCN(CCOc3ccccc3)C2)cn1` (configuration not stated): the cytotoxicity at 70.5 h is -1.63%. Regarding `COCCN1CCC1c1cc(NC2CCCC2)nc(C)n1` (configuration not stated), the cytotoxicity at 70.5 h was -5.31%. The figure for `O=c1[nH]cc(N2CCCCC2)c(=O)[nH]1` is -3.72%. With `CNc1ncccc1CN1CCN(C)CC(C(=O)N(C)C)C1` (configuration not stated), the cytotoxicity at 70.5 h is 14.6%. Under `CC(=O)N1CCCC(c2nc(N(C)C)ncc2-c2ccccc2)C1` (configuration not stated) stands 3.58%. With `CCN(CC)S(=O)(=O)N1C[C@@H](O)[C@H](Oc2cccc(F)c2)C1`, the cytotoxicity at 70.5 h is -6.35%.

In the case of `CC(=O)Nc1ccc(S(=O)(=O)N2CCOC(Cn3ccnc3)C2)cc1` (configuration not stated), the cytotoxicity at 70.5 h is -4.79%.

For the molecule `O=S(=O)(c1ccccc1)N1CCOCC(Cc2cccnc2)C1` (configuration not stated), the cytotoxicity at 70.5 h was -3.24%.

For `COCCNC(=O)C1(CCCc2cccnc2)CCCN1C` (configuration not stated), the cytotoxicity at 70.5 h came out at 13.5%. For `CNc1cccc(C2CCN(C(C)=O)CC2)n1`, the cytotoxicity at 70.5 h was -5.62%. Regarding `CCC(=O)N1CCCC(c2nc(N(C)C)ncc2-c2ccc(F)cc2)C1` (configuration not stated), the cytotoxicity at 70.5 h was found to be 3.25%. For the molecule `Cc1ncsc1C(=O)N1CCC(O)(Cn2c(C)cc3ccncc32)CC1`, the cytotoxicity at 70.5 h was -0.305%. `Cc1cc(C(=O)N2CCC(O)(Cn3c(C)cc4ccncc43)CC2)on1`: the cytotoxicity at 70.5 h was -0.77%. The figure for `CN1C[C@@H](C(=O)N2CCOCC2)[C@@]2(CCc3ccccc3C(=O)N2)C1` is -1.75%; for `O=C(c1cccnc1)N1Cc2ccccc2OCC1Cn1ccnc1` (configuration not stated) it is 9.81%. For the molecule `Cc1csc2c(C3CCCN(C(=O)CCn4cncn4)C3)nc(C)n12` (configuration not stated), the cytotoxicity at 70.5 h was 1.05%. With `Cc1csc2c(C3CCCN(C(=O)CCn4ccnc4)C3)nc(C)n12` (configuration not stated), the cytotoxicity at 70.5 h turned out to be 17.3%. As for `Cc1csc2c(C3CCCN(C(=O)CCCn4cncn4)C3)nc(C)n12` (configuration not stated), the cytotoxicity at 70.5 h came out at 2.61%. Under `CC(C(=O)N1CCCC1)n1nc(-c2cccs2)cc(N)c1=O` (configuration not stated) stands 5.25%. For `CC(C(=O)N1CCOCC1)n1nc(-c2cccs2)cc(N)c1=O` (configuration not stated), the cytotoxicity at 70.5 h came out at 2.02%. As for `CCCn1nc(C)c(CN(CCN(C)C)Cc2ccccn2)c1C`, the cytotoxicity at 70.5 h stood at 12.9%. Take `CCn1nc(C)c(CN(CCCN(C)C)Cc2ccccn2)c1C`: the cytotoxicity at 70.5 h was found to be 21.3%. For the molecule `CN(C)c1ncc(I)c(C2CCCCN2C)n1` (configuration not stated), the cytotoxicity at 70.5 h is -3.55%. `Cn1cc(CN(Cc2ccccn2)Cc2ccccc2Cl)cn1`: the cytotoxicity at 70.5 h was -1.3%.

Consider `CN(C)Cc1cnc(C2CN(C(=O)c3ccccc3Cl)CCO2)[nH]1` (configuration not stated), for which the cytotoxicity at 70.5 h was -1.46%. In the case of `CN1C(=O)CC[C@@H]2N(C(=O)CCc3cccnc3)CCCC[C@@]21C`, the cytotoxicity at 70.5 h was -1.68%. `Cc1nn(C)cc1S(=O)(=O)N(C)[C@@H]1CCC[C@@H](n2ccnc2)[C@@H]1O`: the cytotoxicity at 70.5 h was 19.1%. Consider `CN1CCCC(Cc2nccnc2Cl)CC1` (configuration not stated), for which the cytotoxicity at 70.5 h is -3.4%. On to `CN([C@@H]1CCC[C@@H](n2ccnc2)[C@@H]1O)S(=O)(=O)c1cn(C)cn1`, for which the cytotoxicity at 70.5 h came to 19.9%.

`COC1CCCOC12CCN(C(=O)c1ccc3[nH]nnc3c1)CC2` (configuration not stated): the cytotoxicity at 70.5 h is -5.57%. `O=c1c(Cc2ccccc2)c(O)ccn1Cc1cccs1`: the cytotoxicity at 70.5 h came to 23.3%.

Turning to `COc1ccc(SCC2CNc3nc4ccccc4c(=O)n32)cc1` (configuration not stated), the cytotoxicity at 70.5 h was 1.56%.

As for `O=c1c(Cc2ccccc2)c(O)ccn1CCc1ccccc1`, the cytotoxicity at 70.5 h is -3.9%.

As for `CC(=O)c1ccc(-c2cc(C(F)(F)F)cc(N(C)C)n2)cc1`, the cytotoxicity at 70.5 h was -7.82%. For the molecule `O=C(NC1CC1)c1cc(C(F)(F)F)cc(C(=O)NC2CC2)n1`, the cytotoxicity at 70.5 h turned out to be 23%. The figure for `O=C(O)Cc1cn2cc(C(F)(F)F)ccc2n1` is -10.8%. `O=c1[nH]c2ncccc2n1C1CCCC1`: the cytotoxicity at 70.5 h is -0.61%. `CC(O)c1cn(Cc2cccc(C(F)(F)F)c2)nn1` (configuration not stated): the cytotoxicity at 70.5 h was -4.44%. `CC(O)c1cn(Cc2ccc(Cl)cc2Cl)nn1` (configuration not stated): the cytotoxicity at 70.5 h was -7.31%. As for `OC1(CNc2ccc(F)cc2)CCNCC1`, the cytotoxicity at 70.5 h is -7.97%. In the case of `O=C(CC(SC1CCCCC1)C(=O)O)c1ccc(Br)cc1` (configuration not stated), the cytotoxicity at 70.5 h was found to be 0.38%. In the case of `Cc1ccc(NCC2(O)CCNCC2)cc1C`, the cytotoxicity at 70.5 h is -1.72%. On to `O=C(CN1CCCCC1)Nc1cc(C(F)(F)F)ccc1-n1cccc1`, for which the cytotoxicity at 70.5 h is -9.88%. For `O=c1c2ccccc2nc2n1C(CSc1ccc(Cl)cc1Cl)CN2` (configuration not stated), the cytotoxicity at 70.5 h amounted to 29.6%.

Regarding `CC(=O)c1sc(Nc2ccc(Cl)cn2)nc1C`, the cytotoxicity at 70.5 h worked out at 31.3%.

Regarding `CC(C)CSCCN1CCCN(S(C)(=O)=O)CC1`, the cytotoxicity at 70.5 h was 9.07%. Take `CN(CC(=O)NCC(F)(F)F)C(=O)c1ccc(C(=O)OC(C)(C)C)cc1`: the cytotoxicity at 70.5 h was -0.193%.

On to `O=S(=O)(c1cc(F)ccc1F)N1CCCC1c1ccncc1` (configuration not stated), for which the cytotoxicity at 70.5 h was -3.85%. On to `CN(C(=O)NC1CC1)C1CCN(c2ccc(Cl)cc2)CC1`, for which the cytotoxicity at 70.5 h was -7.5%.

Regarding `CN(C(=O)Nc1ccncc1)C1CCN(c2ccc(Cl)cc2)CC1`, the cytotoxicity at 70.5 h turned out to be 1.01%.

Take `Cn1cc(C2CCCN2C(=O)c2cnc(-c3cccs3)s2)cn1` (configuration not stated): the cytotoxicity at 70.5 h amounted to 22.5%. For the molecule `CC1CCc2nc(NS(=O)(=O)c3cnn(C)c3)sc2C1` (configuration not stated), the cytotoxicity at 70.5 h came out at 0.918%. With `OCc1c(Cl)ncn1-c1ccc(F)cc1`, the cytotoxicity at 70.5 h was 2.53%. Under `Cc1ccc(-n2cnc(Cl)c2CO)cc1` stands -3.28%; under `OCc1c(Cl)ncn1-c1ccccc1`, 0.513%; under `Cc1cccc(-n2cnc(Cl)c2CO)c1`, -0.946%. Turning to `c1ccc(-c2nc(CCNCc3ccccn3)co2)cc1`, the cytotoxicity at 70.5 h is -1.18%.

Take `COc1ccc(Br)cc1SCCC(N)=O`: the cytotoxicity at 70.5 h was -0.68%. Under `Cc1ccccc1C(C#N)NC(=O)CCCOc1cccnc1` (configuration not stated) stands -0.163%.

As to `COc1ccc(CN2CCCCC2c2n[nH]cc2-c2cc(C)no2)cc1` (configuration not stated), the cytotoxicity at 70.5 h is 11%. Turning to `CN(C)c1ncc2c(O)nc(C3CCNCC3)cc2n1`, the cytotoxicity at 70.5 h is -6.95%. The figure for `CN(C)c1ncc(I)c(C2CCCN2C)n1` (configuration not stated) is 1.48%.

On to `CCc1nc(-c2ccnc(N3CCNCC3)n2)no1`, for which the cytotoxicity at 70.5 h was -2.35%. Consider `CN(C)C(=O)N1CCOCC2(CCN(c3ccccn3)C2)C1` (configuration not stated), for which the cytotoxicity at 70.5 h is -5.46%. For `CS(=O)(=O)N1CCOC2(CCCN(c3cnccn3)C2)C1` (configuration not stated), the cytotoxicity at 70.5 h was -6.97%. Regarding `CCOC[C@H]1CC[C@H]2[C@H](CCN2C(=O)c2ccncc2F)O1`, the cytotoxicity at 70.5 h is -8.92%.

For the molecule `CN(C)C(=O)N1CCOCC2(CCN(c3ncccn3)C2)C1` (configuration not stated), the cytotoxicity at 70.5 h is -5.25%.

Regarding `CO[C@@H]1CN(Cc2scnc2C)[C@@H]2CCCO[C@@H]21`, the cytotoxicity at 70.5 h was -4.62%. Under `c1ccc(CN2C[C@@H]3CCCO[C@@H]3[C@H](Nc3ccccn3)C2)nc1` stands -7.21%. The figure for `Cc1cc(C)nc(NCCC(=O)NCCn2ccnc2C)n1` is 3.01%.
